Test results reported in publication PMC7044129, “Spexin and a Novel Cichlid-Specific Spexin Paralog Both Inhibit FSH and LH Through a Specific Galanin Receptor (Galr2b) in Tilapia” (Frontiers in Endocrinology, 2020).
No end group written: not given here.

What was measured:
[1] = tested on: Tilapia D2 dopamine receptor; conditions: COS7 cells, SRE-Luc and Gqi5
Description: (§1) EC50 values were calculated from dose response curves by means of computerized non-linear curve fitting on baseline-corrected (control) values using Prism version 6 software (GraphPad).
(1 picture or pasted object on this page, not shown here)

[2] = tested on: spexin expression; conditions: spotted scat, in vitro; cited from earlier work
Text: (§2) Spexin has been implicated in regulating the hypothalamic-pituitary-gonad (HPG) axis in some fish species. […] The first report on fish spexin in zebrafish and goldfish identified high and dynamic expression in the brain throughout the reproductive stages ([10]). […] Ovariectomized goldfish had increased hypothalamic spexin e ...

[3] = target: tilapia Galr2a (Oreochromis niloticus, UniProt A0A650AWG9); type: cell-based, Nile tilapia (Oreochromis niloticus); conditions: Gqi pathway (chimeric Gqi5 with SRE-luc, Gαi readout), COS7 cells, 6 h stimulation after 16 h serum starvation, mean ± SEM, minimum three independent transfections, triplicate wells
Description: as §1

[4] = tested on: GalR2; conditions: cited from earlier work
Text: Spexin mediates its effects by activating an inhibitory G-protein (Gαi) via galanin receptor (GalR) 2/3. Like the kisspeptin, galanin, and spexin peptides, the kisspeptin and galanin receptors are related. Ancestral forms of KissR, GalR1, and GalR2/3 were identified on different VACs with 1R and 2R expanding each clade, giving rise to four KissR (KissR1, 3, 2, 4), two GalR1 (1a, 1b), two GalR2 (2a, 2b) and GalR3 paralogs ([15]). Our phylogenetic analysis supports that of Kim et al. ([15]), showing that GalRs are divided into two major clades, namely GalR1 and GalR2/3, with KissRs forming a dis ...

[5] = tested on: stomach contraction; conditions: mammals; cited from earlier work
Text: (§3) Spexin (SPX1; also termed neuropeptide Q) was identified first by computational methods in humans ([1]), and then also by chemical methods in goldfish ([2]). These computational methods have been attempted mostly on the basis of the characteristics of the prohormones from which active neuropeptides are processed. The mature peptide sequence contains 14 amino acids that are flanked by monobasic and dibasic proteolytic cleavage sites. […] A paralog o ...

[6] = tested on: adrenocortical cell; conditions: mammals; cited from earlier work
Text: as §3

[7] = tested on: feeding behavior induced by NPY and orexin; conditions: intracerebroventricular injection; no reference printed at the sentence (preceding sentence ref 2); cited from earlier work
Text: (§4) Spexin plays a role in feeding behavior and metabolism in fish and mammals [reviewed in ([3])]. In the orange-spotted grouper ([11]), half-smooth tongue sole ([46]), and spotted scat ([46]), starvation increased Spx1 expression. […] This effect was also observe ...

[8] = tested on: agouti-related peptide (AgRP) expression; conditions: zebrafish; cited from earlier work
Text: as §4

[9] = tested on: appetite stimulants and anorexigenic factors in the brain; conditions: goldfish brain, central administration, cited from earlier work
Text: as §4

[10] = tested on: goldfish; conditions: injection; cited from earlier work
Text: as §4

[11] = tested on: LH release; conditions: goldfish; cited from earlier work
Text: as §2

[12] = tested on: goldfish pituitary cultures; conditions: cited from earlier work
Text: as §2

[13] = tested on: GnIH, GnRH-III, GpHα and FSHβ expression; conditions: sole; cited from earlier work
Text: Spexin mRNA expression levels may also be correlated with reproductive development. Increases in LH and FSH mRNA expression is seasonal and corresponds to gonadal development ([50], [51]).

[14] = tested on: GALR2; conditions: cited from earlier work
Text: (§5) The galanergic neurotransmission system is one of the newest described signaling systems. […] Three different types of galanin receptors have been described so far in mammals: galanin receptor 1, 2, and 3 (GALR1, GALR2, and GALR3) ([14]). All of them are members of the G protein-coupled receptor (GPCR) family and act through stimulation of various seco ...

[15] = tested on: Galr2a; conditions: cited from earlier work
Text: as §5

[16] = tested on: Galr2b; conditions: cited from earlier work
Text: as §5

[17] = tested on: GALR3; conditions: cited from earlier work
Text: as §5

[18] = tested on: hypothalamic spexin expression; conditions: ovariectomized goldfish, estrogen replacement; cited from earlier work
Text: as §2

[19] = tested on: Spx1 levels and expression; conditions: cited from earlier work
Text: as §4

Sequence of tilapia Galr2a (A0A650AWG9 entry or part of it): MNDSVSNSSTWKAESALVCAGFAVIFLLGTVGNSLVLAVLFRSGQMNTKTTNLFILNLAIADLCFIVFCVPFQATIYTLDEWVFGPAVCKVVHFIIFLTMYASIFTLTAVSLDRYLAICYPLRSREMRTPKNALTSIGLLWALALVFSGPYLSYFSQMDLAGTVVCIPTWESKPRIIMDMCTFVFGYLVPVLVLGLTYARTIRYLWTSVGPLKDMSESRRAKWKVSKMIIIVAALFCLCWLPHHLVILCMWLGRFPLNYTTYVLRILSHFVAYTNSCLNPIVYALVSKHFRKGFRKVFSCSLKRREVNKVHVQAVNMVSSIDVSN

Molecule: NCCc1ccc(O)c(O)c1 [dopamine]
- luciferase activity via tilapia D2 receptor with Gqi5 (in words) [1]: dose-dependent increase in luciferase activity

Molecule: C[C@]12CC[C@@H]3c4ccc(O)cc4CC[C@H]3[C@@H]1CC[C@@H]2O [estradiol]
- spexin expression [2]: decreased spexin expression in a dose-dependent manner in vitro

Molecule: GWTLNSAGYLLGPHAVGNHRSFSNKNGLTS-NH2 [Galanin]
- EC50 [3]: 0.0001 ± 5.6 log nM

Molecule: Spexin: spexin of cited literature; 14 amino acid peptide hormone, species varies
- dissociation / receptor internalization at GalR2 [4]: quickly dissociated after G-protein signaling
- stomach contraction [5]: inducing stomach contraction
- adrenocortical cell proliferation [6]: inhibiting adrenocortical cell proliferation
- NPY- and orexin-induced feeding [7]: inhibited feeding behavior induced by NPY and orexin
- AgRP expression [8]: suppressed agouti-related peptide (AgRP) expression
- expression of anorexigenic factors ([9]; POMC, CART, CCK, MCH, CRH): increased expression of anorexigenic factors
- expression of appetite stimulants [9]: decrease in expression of appetite stimulants (NPY, AgRP, and apelin)
- feeding behavior [10]: decreased surface feeding and increased food rejection
- LH release in vivo [11]: inhibited LH release
- LH release in pituitary cultures [12]: inhibited LH release
- GnIH and GnRH-III expression [13]: increasing gonadotropin inhibitory hormone (GnIH) and GnRH-III expression
- GpHα and FSHβ expression [13]: decreasing GpHα and FSHβ expression
- functional agonism at human GALR2 [14]: functional agonist
- functional agonism at zebrafish Galr2a [15]: functional agonist
- functional agonism at zebrafish Galr2b [16]: functional agonist
- functional agonism at human GALR3 [17]: functional agonist

Molecule: estrogen
- hypothalamic spexin expression [18]: returned expression to basal levels

Molecule: insulin: insulin (cited study on spexin regulation)
- circulating Spx1 and brain Spx1 expression [19]: increase circulating levels of Spx1 and its expression in the telencephalon, hypothalamus, and optic tectum
